The values below come from PubChem BioAssay AID1919016 (Molecular Pharmacology Branch, DTP, NCI, 2023).

This assay concerns NCI-H196 complex spheroid growth, percent test/control. The assay is described as follows: Anticancer human tumor NCI-H196 cell line growth inhibition [AhR].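 For all read-outs here: seven days of drug exposure starting three days after plating.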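 For viability, T/C: 100% = DMSO vehicle control wells.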 The conditions noted are these: for viability, T/C: stronger effect = lower value. The text has this:
Multicellular complex tumor spheroid response to aryl hydrocarbon receptor antagonists in combination with a variety of drugs and investigational agents in selected tumor cell lines
The current study was undertaken to assess response to aryl hydrocarbon receptor antagonists in combination with standard-of-care drugs and investigational agents in solid tumor complex spheroid models. Complex spheroids include a stromal component modeled by human endothelial cells (HUVEC) and fibroblasts modeled by human mesenchymal stem cells (MSCs). The concentration ranges selected for each drug and investigational agent were based upon clinically achievable concentrations if the clinical Cmax of the agent was known.
Compounds. The drugs and investigational agents: BAY 2416964 (NSC825713), GNF351 (NSC835774), CH-223191 (NSC835775), CPI-455 (NSC825282), aza-TdCyd (NSC777586), decitabine (NSC127716), belinostat (NSC758774), entinostat (NSC756642), pevonedistat (NSC761192), tazemetostat (NSC777109), talazoparib (NSC765396), olaparib (NSC753686), selinexor (NSC780203), nedisertib (M3814, NSC802822), bortezomib (NSC756655), venetoclax (NSC766270), doxorubicin (NSC123127), elimusertib (BAY189344, NSC800525), ceralasertib (AZD6738, NSC777638), TAK-243 (NSC785004), alisertib (NSC759677), etoposide (NSC141540), topotecan (NSC609699), eribulin (NSC707389), gemcitabine (NSC613327), carboplatin (NSC241240), cisplatin (NSC119875), and SN-38 (NSC673596) were obtained from the National Cancer Institute (NCI) Developmental Therapeutics Program Chemical Repository (32). The FDA-approved anticancer drug set is available from the Developmental Therapeutics Program at https://dtp.cancer.gov/organization/dscb/obtaining/available plates.htm. […] The stock solutions were prepared in dimethyl sulfoxide (DMSO, Sigma-Aldrich, St. Louis, MO, cat. D2650), except for the platinum compounds which were prepared in saline (Quality Biological, Gaithersburg, MD, cat. 114-055-101), at 800-fold the tested concentration and stored at -70 degrees C prior to their use. All drugs and investigational agents were tested over a range starting from a high concentration at or near the clinical Cmax and decreasing in half-log increments. If the clinical Cmax for an agent had not been determined, the highest concentration tested was 10 microM (Table 1).
Cell Culture. All cells were maintained in an incubator at 37 degrees C and 5% CO2 with 95% humidity. The PDC lines were cultured according to standard operating procedures established by the NCI PDMR (https://pdmr.cancer.gov). Briefly, all PDCs were thawed and cultured in Matrigel-coated flasks prepared with a working solution of 1X Ham's F-12 nutrient mix, without supplementation (Invitrogen, Waltham, MA, cat. 11765054), 100 U/mL penicillin-streptomycin (Invitrogen, cat. 15140122), and 2.5% Matrigel (Corning Inc., Corning, NY, cat. 354248) for the first three passages. All PDCs were cultured in complete DMEM/F-12 media containing advanced DMEM/F-12 (Invitrogen, cat. 12634028), 4.9% defined fetal bovine serum, heat inactivated (HyClone Laboratories Inc., Logan, UT, cat. SH30070.03HI), 389 ng/mL hydrocortisone (Sigma-Aldrich, cat. H4001), 9.7 ng/mL human EGF recombinant protein (Invitrogen, cat. PHG0313), 23.4 microg/mL adenine (Sigma-Aldrich, cat. A2786), 97.3 U/mL penicillin-streptomycin (Invitrogen, cat. 15140122), 1.9 mM L-glutamine (Invitrogen, cat. 25030081), and 9.7 microM Y-27632 dihydrochloride (Tocris Bioscience, Bristol, United Kingdom, cat. 1254). The PDCs were cultured in complete DMEM/F12 media without 10 microM Y-27632 dihydrochloride for at least two passages prior to the screen. The established cell lines NCI-H1341 and […] were cultured in DMEM/F-12, HEPES (Invitrogen, cat. 11330032), 5% defined fetal bovine serum (HyClone Laboratories Inc., cat. SH30070.03), ITS premix universal culture supplement [insulin (5 microg/mL), transferrin (5 microg/mL), and selenious acid (5 ng/mL)] […]

Where [1] appears, read: curve of first compound, second compound 0.1 µM.
Where [2] appears, read: curve of first compound, second compound 0.316 µM.
Setting [3] is: curve of first compound, second compound 1 µM.
The mark [4] stands for this setting: curve of first compound, second compound 3.16 µM.
Where [5] appears, read: curve of first compound, second compound 10 µM.
[6] abbreviates: second compound 0.1 µM, first compound 0.0316 µM.
[7] abbreviates: second compound 0.1 µM, first compound 0.1 µM.
Setting [8] is: second compound 0.316 µM, first compound 0.0316 µM.
Where [9] appears, read: second compound 0.316 µM, first compound 0.1 µM.
The mark [10] stands for this setting: second compound 1 µM, first compound 0.0316 µM.
The mark [11] stands for this setting: second compound 1 µM, first compound 0.1 µM.
Setting [12] is: second compound 3.16 µM, first compound 0.0316 µM.
Setting [13] is: second compound 3.16 µM, first compound 0.1 µM.
Setting [14] is: second compound 10 µM, first compound 0.0316 µM.
Setting [15] is: second compound 10 µM, first compound 0.1 µM.

Values joined by “and” are separate entries in the source; they are usually repeats but may differ in a detail not shown here. Identical values can stand only once.

Turning to `Nc1ccccc1NC(=O)c1ccc(CNC(=O)OCc2cccnc2)cc1` + Cc1ccccc1N=Nc1ccc(NC(=O)c2ccnn2C)c(C)c1, the IC50 (as a rule, the midpoint of a concentration-inhibition curve) is 787 nM under setting [1]; 856 nM under setting [2]; 992 nM under setting [3]; 765 nM under setting [4]; 1200 nM under setting [5]. Moreover, the viability, T/C (in general, the ratio of treated to control) by setting is: under setting [6], 88%; under setting [7], 78.3%; (second compound 0.1 µM, first compound 0.316 µM) 71.9%; (second compound 0.1 µM, first compound 1 µM) 44.8%; (second compound 0.1 µM, first compound 3.16 µM) 15%; (second compound 0.1 µM, first compound 10 µM) 0.96%. Besides, the viability, T/C reads like this: under setting [8], 85%; under setting [9], 83.9%; (second compound 0.316 µM, first compound 0.316 µM) 73.3%; (second compound 0.316 µM, first compound 1 µM) 44.9%; (second compound 0.316 µM, first compound 3.16 µM) 18.5%; (second compound 0.316 µM, first compound 10 µM) 1%. The viability, T/C is, setting by setting: under setting [10], 85.8%; under setting [11], 89.8%; (second compound 1 µM, first compound 0.316 µM) 74.9%; (second compound 1 µM, first compound 1 µM) 48.6%; (second compound 1 µM, first compound 3.16 µM) 20.7%; (second compound 1 µM, first compound 10 µM) 1.92%. Also, the viability, T/C is 91.9% under setting [12]; 80.8% under setting [13]; 70.5% (second compound 3.16 µM, first compound 0.316 µM); 44% (second compound 3.16 µM, first compound 1 µM); 18.5% (second compound 3.16 µM, first compound 3.16 µM); 1.99% (second compound 3.16 µM, first compound 10 µM). Moreover, the viability, T/C by setting is: under setting [14], 88.8%; under setting [15], 94.7%; (second compound 10 µM, first compound 0.316 µM) 72.7%; (second compound 10 µM, first compound 1 µM) 55.2%; (second compound 10 µM, first compound 3.16 µM) 26.5%; (second compound 10 µM, first compound 10 µM) 3.32%.

For `Nc1ncn(C2CC(O)C(CO)O2)c(=O)n1` (stereo unspecified), the viability, T/C was 110% and 113% and 104% (compound 0.00316 µM); 96.1% and 116% and 107% (compound 0.01 µM); 93.2% and 102% and 110% (compound 0.0316 µM); 97.1% and 113% and 103% (compound 0.1 µM); 105% and 124% and 93.8% (compound 0.316 µM); 116% and 104% and 105% (compound 1 µM). Also, under “curve of compound”, the IC50 is more than 1000 nM.

As to `O=C(c1cc(Cc2n[nH]c(=O)c3ccccc23)ccc1F)N1CCN(C(=O)C2CC2)CC1`, the viability, T/C by setting is: (compound 0.0316 µM) 106% and 105% and 100%; (compound 0.1 µM) 105% and 112% and 108%; (compound 0.316 µM) 99.7% and 98.5% and 104%; (compound 1 µM) 97.2% and 98.1% and 105%; (compound 3.16 µM) 97.2% and 96.9% and 99.9%; (compound 10 µM) 99.7% and 103% and 99.5%. The IC50 (curve of compound) was more than 10000 nM.

Regarding `CC[C@@]1(O)C(=O)OCc2c1cc1n(c2=O)Cc2cc3c(CN(C)C)c(O)ccc3nc2-1` + CC(CO)NC(=O)c1cc(-c2ccc(Cl)cc2)nn(-c2cnn(C)c2)c1=O, the IC50 under setting [1] is more than 100 nM; the IC50 under setting [2] is more than 100 nM; the IC50 under setting [3] is more than 100 nM; the IC50 under setting [4] was more than 100 nM; the IC50 under setting [5] was more than 100 nM. Also, the viability, T/C (second compound 0.1 µM, first compound 0.000316 µM) was 104%; the viability, T/C (second compound 0.1 µM, first compound 0.001 µM) was 101%; the viability, T/C (second compound 0.1 µM, first compound 0.00316 µM) was 97.8%; the viability, T/C (second compound 0.1 µM, first compound 0.01 µM) was 97%; the viability, T/C under setting [6] was 111%; the viability, T/C under setting [7] is 119%. For the same compound, the viability, T/C was 111% (second compound 0.316 µM, first compound 0.000316 µM); 110% (second compound 0.316 µM, first compound 0.001 µM); 105% (second compound 0.316 µM, first compound 0.00316 µM); 105% (second compound 0.316 µM, first compound 0.01 µM); 111% under setting [8]; 129% under setting [9]. The viability, T/C was 98.6% (second compound 1 µM, first compound 0.000316 µM); 108% (second compound 1 µM, first compound 0.001 µM); 116% (second compound 1 µM, first compound 0.00316 µM); 100% (second compound 1 µM, first compound 0.01 µM); 113% under setting [10]; 119% under setting [11]. Moreover, the viability, T/C reads like this: (second compound 3.16 µM, first compound 0.000316 µM) 110%; (second compound 3.16 µM, first compound 0.001 µM) 111%; (second compound 3.16 µM, first compound 0.00316 µM) 114%; (second compound 3.16 µM, first compound 0.01 µM) 96.8%; under setting [12], 120%; under setting [13], 118%. Moreover, the viability, T/C reads like this: (second compound 10 µM, first compound 0.000316 µM) 111%; (second compound 10 µM, first compound 0.001 µM) 112%; (second compound 10 µM, first compound 0.00316 µM) 116%; (second compound 10 µM, first compound 0.01 µM) 103%; under setting [14], 113%; under setting [15], 124%.

Regarding `Cn1ncnc1C1c2n[nH]c(=O)c3cc(F)cc(c23)NC1c1ccc(F)cc1` (stereo unspecified), the viability, T/C (compound 0.000316 µM) is 120% and 100% and 104%; the viability, T/C (compound 0.001 µM) was 104% and 99.4% and 98.5%; the viability, T/C (compound 0.00316 µM) is 114% and 102% and 99.6%; the viability, T/C (compound 0.01 µM) was 92.6% and 105% and 106%; the viability, T/C (compound 0.0316 µM) is 94.1% and 106% and 103%; the viability, T/C (compound 0.1 µM) was 114% and 102% and 104%. Under “curve of compound”, the IC50 was more than 100 nM.
